“And” between values parts separate entries of the source, which are not always exact repeats. Identical values can stand only once. The source made the active and inactive calls. No rule for the calls is given here.

The text below walks through data of PubChem BioAssay AID624258 (Broad Institute, 2012).

One experiment can be described thus: Yeast SKN7 toxicity growth rescue counterscreen, Saccharomyces cerevisiae, plate reader, dose confirmatory (AID 624258).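 Also: growth read after three days of incubation at 30 °C; 0% = median of neutral control wells.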 The note with it: S. cerevisiae SKN7-toxicity growth rescue, plate reader; at 6.8 µM (top of the series).
For the compound `Cc1ccc(C(=O)C(SC(C)(C)C)n2cncn2)cc1` (configuration not stated), the growth rescue activity is 27.6% (inactive). Same read-out and setting: under `CN(C)CCCNc1cc(C(C)(C)C)nc2c(-c3ccc(Cl)cc3)cnn12` stands 14.1% (inactive); under `COc1cc2nc(N3CCNCC3)nc(N)c2cc1OC`, 5.76% (inactive).

Still in this experiment, the particulars now being: S. cerevisiae SKN7-toxicity growth rescue, plate reader; at 19.5 µM (top of the series).
Take `C[n+]1c2cc(N)ccc2cc2ccc(N)cc21`: the growth rescue activity was -24.4% (inactive) and -10% (inactive). Regarding `O=C1OCC(CO)(CO)N=C1NNc1ccc(Cl)c(Cl)c1`, the growth rescue activity was -52.3% (inactive). Take `COc1ccc(C2=CC(=O)C[C@H](c3ccc4c(c3)OCO4)C2)cc1`: the growth rescue activity is 89.7% (inactive). As for `CC1(S(=O)(=O)O)CC(=O)c2ccccc2C1=O` (configuration not stated), the growth rescue activity is -12.1% (inactive).

`C/C(=N\NC(=O)COc1ccccc1-c1ccccc1)c1ccccn1`: the growth rescue activity is -11.5% (inactive). `O=S(=O)(c1c(Cl)sc(Cl)c1Br)N1CCCC1`: the growth rescue activity is -25% (inactive). As for `O=C(Nc1nc(-c2ccccn2)cs1)c1ccc(Br)s1`, the growth rescue activity was -44.2% (inactive). `Cc1ccccc1Oc1nc(-c2ccccn2)nc2ccccc12`: the growth rescue activity is -58.6% (inactive).

Turning to `Cc1ccc(S(=O)(=O)Nc2ccc(O)c3cccnc23)cc1`, the growth rescue activity is -0.63% (inactive).

In the case of `Cc1cc(NC2=CC(=O)C(=O)c3ccccc32)no1`, the growth rescue activity was -9.16% (inactive). For `CCCC(=O)NC(c1ccc(N(C)C)cc1)c1ccc2cccnc2c1O` (configuration not stated), the growth rescue activity was -7.33% (inactive).

As to `Nc1ccc(CC2=NCCN2)cc1`, the growth rescue activity is 34.1% (inactive).

For the compound `COc1ccc(S(=O)(=O)Nc2cc(SCC(=O)O)c(O)c3ccccc23)cc1`, the growth rescue activity was 4.66% (inactive).

Regarding `Oc1c(C(Nc2ccccn2)c2ccccn2)ccc2cccnc12` (configuration not stated), the growth rescue activity was -61.4% (inactive).

Turning to `Oc1cccc(/C=N/N(Cc2ccccc2)c2ccccc2)c1`, the growth rescue activity is -91.5% (inactive). On to `COC(=O)c1cccc2c1-c1ccccc1/C2=N/O`, for which the growth rescue activity was 30.5% (inactive). For the compound `CCCSC(=S)c1c(C)[nH]n(-c2ccccc2)c1=O`, the growth rescue activity is -53% (inactive). Take `Cc1ccc(-n2nnnc2SCC(=O)N2CCc3ccccc3C2)c(C)c1`: the growth rescue activity is -18.8% (inactive). The same measure, in the same setting: then `NC(=O)N=Nc1c2[nH]c3ccccc3nc-2c2ccccc12`, with 6.67% (inactive); and `Cc1csc(NC(=O)C(C)Oc2ccc(Cl)cc2C)n1` (configuration not stated), with 10.9% (inactive); and `Oc1c(Br)cc(-c2ccccc2)cc1Br`, with -84.6% (inactive). As to `Cc1ccsc1/C=C/c1ccc2cccc(O)c2n1`, the growth rescue activity is -50.7% (inactive). As for `CCC(CC)C(=O)N1CCN(c2cccc(C)c2C)CC1`, the growth rescue activity was -12.1% (inactive).

As for `CCOc1ccc(S(=O)(=O)Nc2cc(SCC(=O)O)c(O)c3ccccc23)cc1`, the growth rescue activity was 21.7% (inactive). In the case of `CCCCNc1c(-c2ccc(-c3ccc(OC)cc3)c(OC)c2)nc2ccccn12`, the growth rescue activity was -84.6% (inactive). Turning to `CCN(CC)S(=O)(=O)c1ccc(N=NC2=C(O)CC(C)(C)CC2=O)cc1`, the growth rescue activity is -10.4% (inactive). In the case of `Oc1c(C(Nc2cccc(C(F)(F)F)c2)c2ccncc2)ccc2cccnc12` (configuration not stated), the growth rescue activity was -60.6% (inactive). As for `Cc1[nH]n(C(N)=S)c(=O)c1N=Nc1ccc2ccccc2c1`, the growth rescue activity is -41.4% (inactive). In the case of `O=C(O)c1ccccc1NC(c1ccccc1)c1ccc2cccnc2c1O` (configuration not stated), the growth rescue activity is -59.1% (inactive).

`O=[N+]([O-])c1cc(Oc2cccnc2)cc([N+](=O)[O-])c1`: the growth rescue activity is 5.86% (inactive). As to `CC(C)CNC(=O)COC(=O)c1ccc([N+](=O)[O-])cc1Cl`, the growth rescue activity is 3.79% (inactive).

Regarding `CC1CC(=Cc2ccc([N+](=O)[O-])cc2)C(=O)O1` (configuration not stated), the growth rescue activity was 2.43% (inactive). Still for that read-out and setting: under `CCCCc1ccc(-n2c(Cc3cccs3)n[nH]c2=S)cc1` stands -23.9% (inactive); under `CCCCNc1c(-c2cccc(-c3ccc(OC)cc3)c2)nc2ccc(C)cn12`, -90.6% (inactive); under `O=C(c1ccccc1)N1C(=O)C(c2ccccc2)Oc2ccccc21` (configuration not stated), -57.4% (inactive). With `O=C(Sc1cccc2cccnc12)c1ccccc1Br`, the growth rescue activity was -59.6% (inactive). In the case of `O=[N+]([O-])c1cccc(C=NNc2ccc3ccccc3n2)c1O`, the growth rescue activity is -79.2% (inactive). With `Cc1cccc(Oc2nc(-c3ccccn3)nc3ccccc23)c1`, the growth rescue activity was -67.8% (inactive). The same measure, in the same setting: under `N#Cc1c(-c2ccccc2)nc2n(c1=O)CCS2` stands 27.6% (inactive); under `CCc1cc(C(=O)Nc2nc(-c3ccccn3)cs2)sc1C`, -67.6% (inactive). Same read-out and setting: under `C(=C1c2ccccc2-c2ccccc21)c1ccncc1` stands -46.7% (inactive); under `O=C1c2cc(F)ccc2-n2c1nc1ccccc1c2=O`, -16.1% (inactive); under `c1ccc(-c2ccc(SCc3cccnc3)nn2)nc1`, -9.85% (inactive). On to `C[C@]12CC[C@H](O)CC1=CCC1C2CC[C@@]2(C)C1CC[C@@H]2NC(=O)[C@@H](N)Cc1cnc[nH]1` (some centres not stated), for which the growth rescue activity is 26.3% (inactive).

Regarding `O=C1C=C(N(CCO)Cc2ccccc2)c2ccccc2C1=O`, the growth rescue activity was 12.2% (inactive). Same read-out and setting: under `CCC(NC(=S)NCc1ccc(F)cc1)c1ccc(C(C)C)cc1` (configuration not stated) stands 41.2% (inactive). Take `Cn1c(N=Nc2ccccc2)nc2ccccc21`: the growth rescue activity was -85.7% (inactive). As for `Cc1ccc(NC(=O)C2COc3ccccc3O2)cc1S(=O)(=O)N1CCCCC1` (configuration not stated), the growth rescue activity is 35.9% (inactive). As for `N#Cc1c(-c2ccc(Cl)cc2)nc2n(c1=O)CCCS2`, the growth rescue activity is 35.4% (inactive). Same read-out and setting: then `Oc1ccc(Br)cc1/C=N/Nc1ccccn1`, with -73.9% (inactive); and `O=C(Nc1ccc(Br)c(C(F)(F)F)c1)c1ccccc1`, with -78.2% (inactive). On to `Cc1cccc(N2CCN(C(=O)C3(S(=O)(=O)c4ccc(Cl)cc4)CC3)CC2)c1C`, for which the growth rescue activity was -38.2% (inactive). With `O=c1c2ccccc2c(-c2ccc(O)cc2)nn1-c1cccc(C(F)(F)F)c1`, the growth rescue activity is -88.1% (inactive). Turning to `C=C(C)COc1ccc(-c2[nH]ncc2-c2ccc(Br)cc2)c(O)c1`, the growth rescue activity is -77.7% (inactive).

Consider `O=C(Nc1cccc(C(F)(F)F)c1)c1cccnc1NCCc1ccccc1`, for which the growth rescue activity is -54.3% (inactive).

Take `Cc1c(C2(O)CCCCC2)[nH]c2ccc(C(F)(F)F)cc12`: the growth rescue activity was -43.8% (inactive). In the case of `Cc1cc(O)c(-c2cc(O)c(C)cc2O)cc1O`, the growth rescue activity was -8.5% (inactive). `CC(C)(C)c1ccc(C(=O)NC(=S)NNC(=O)c2cccs2)cc1`: the growth rescue activity is -72.5% (inactive).

Regarding `C=C(C)COc1ccc(-c2[nH]ncc2-c2ccccc2)c(O)c1`, the growth rescue activity is -93.2% (inactive). For `O=[N+]([O-])c1ccc2c(c1)Cc1cc(O)ccc1-2`, the growth rescue activity was 4.71% (inactive). Take `CCCCC(c1nnnn1Cc1ccco1)N1CCN(c2nc3ccccc3s2)CC1` (configuration not stated): the growth rescue activity is -9.41% (inactive). As for `COc1cnc(-c2ccccn2)nc1Sc1ccccc1`, the growth rescue activity is -65.3% (inactive). For `CN1C(=S)SC(N(O)C(=O)Nc2cccc3ccccc23)C1(C)C` (configuration not stated), the growth rescue activity is 0.395% (inactive). On the same count and under the same terms, under `O/N=C(\c1ccc(Cl)cc1)c1cc2ccccc2o1` stands 3.39% (inactive); under `CCCCC(=O)NC(c1ccco1)c1cc(Cl)c2cccnc2c1O` (configuration not stated), -45% (inactive); under `O/N=C/c1cc(Br)ccc1OCc1ccccc1F`, -57.4% (inactive).

For the compound `CC/C(=N/NC(=O)c1ccccc1O)c1c(C)[nH]n(-c2ccccc2)c1=O`, the growth rescue activity is -59.4% (inactive). With `O=C(CC1(O)C(=O)Nc2cc(Cl)cc(Cl)c21)c1ccncc1` (configuration not stated), the growth rescue activity is -23.3% (inactive). As for `O=[N+]([O-])c1ccc(S(=O)Cc2ccccc2)c([N+](=O)[O-])c1` (configuration not stated), the growth rescue activity is -45.8% (inactive). `O=C1C(Cl)=C(NCc2cccnc2)C(=O)c2ccccc21`: the growth rescue activity was 26.7% (inactive). Consider `CCN(CC)c1ccc(/C=C/c2ccc3ccc(OC)cc3[n+]2CC)cc1`, for which the growth rescue activity is -52.7% (inactive).

In the case of `CN(C)c1nc(SCc2ccc(Cl)cc2)nc2c1CCCC2`, the growth rescue activity is -65.9% (inactive). On to `Cc1nc(SCc2ccc(OCCC(C)C)cc2)n[nH]1`, for which the growth rescue activity was -93.3% (inactive). As to `CCOC(=O)C1CCCN(C(=O)c2cc(-c3ccc(C)cc3)nc3ccccc23)C1` (configuration not stated), the growth rescue activity was 25.9% (inactive). Still for that read-out and setting: then `Nc1ncnc(Sc2ccccc2)c1[N+](=O)[O-]`, with 21.4% (inactive); and `O=c1c(CO)cc(CO)cc(CO)c1O`, with -26.9% (inactive); and `COc1cccc(Nc2nc(-c3cccs3)nc3ccccc23)c1`, with -45.7% (inactive). As for `Cc1nc2ccc(C(C(F)(F)F)(C(F)(F)F)C(F)(F)F)cc2[nH]1`, the growth rescue activity was -85.7% (inactive). Take `CC(=O)c1c(O)ccc2c(-c3ccccc3)cc(=O)oc12`: the growth rescue activity was -69.1% (inactive).

Take `COc1cc(NS(=O)(=O)c2ccc(C)cc2)c2ncccc2c1`: the growth rescue activity was -51.9% (inactive). Consider `Clc1ccc(C(Cn2ccnc2)OCc2c(Cl)cccc2Cl)c(Cl)c1` (configuration not stated), for which the growth rescue activity is -69.1% (inactive). Turning to `O=[N+]([O-])c1ccc(Sc2cccc[n+]2[O-])c2nonc12`, the growth rescue activity is -4.98% (inactive).

Turning to `Clc1ccc(-c2n[nH]c3c2CCC3)cc1Cl`, the growth rescue activity is -54.5% (inactive). Regarding `S=C(NCc1ccco1)Nc1ccc(Oc2ccc(Cl)cc2)cc1`, the growth rescue activity is 26.1% (inactive).
